# Test results: US7294637B2 (Sepracor, Inc., priority 2000, dated 2007)
# pEC50, pIC50: −log10 of the molar value.
# Experiments:
# [1] = target: dopamine transporter (Rattus norvegicus, UniProt P23977); conditions: read-out: binding affinity for the dopamine transporter (IC50); cited from earlier work
# [2] = locomotor activity tests; cited from earlier work
# [3] = system: rats and monkeys; conditions: cited from earlier work; for effect on self-administration of cocaine: rats and monkeys
# [4] = target: T1, norepinephrine transporter (Homo sapiens, UniProt P23975); experiment: NE uptake: displacement of norephinephrine ligands in vitro (methods of Galli et al.); type: binding; conditions: read-out: NE Uptake, Uptake Profile (IC50)
# T1 sequence (P23975 whole entry): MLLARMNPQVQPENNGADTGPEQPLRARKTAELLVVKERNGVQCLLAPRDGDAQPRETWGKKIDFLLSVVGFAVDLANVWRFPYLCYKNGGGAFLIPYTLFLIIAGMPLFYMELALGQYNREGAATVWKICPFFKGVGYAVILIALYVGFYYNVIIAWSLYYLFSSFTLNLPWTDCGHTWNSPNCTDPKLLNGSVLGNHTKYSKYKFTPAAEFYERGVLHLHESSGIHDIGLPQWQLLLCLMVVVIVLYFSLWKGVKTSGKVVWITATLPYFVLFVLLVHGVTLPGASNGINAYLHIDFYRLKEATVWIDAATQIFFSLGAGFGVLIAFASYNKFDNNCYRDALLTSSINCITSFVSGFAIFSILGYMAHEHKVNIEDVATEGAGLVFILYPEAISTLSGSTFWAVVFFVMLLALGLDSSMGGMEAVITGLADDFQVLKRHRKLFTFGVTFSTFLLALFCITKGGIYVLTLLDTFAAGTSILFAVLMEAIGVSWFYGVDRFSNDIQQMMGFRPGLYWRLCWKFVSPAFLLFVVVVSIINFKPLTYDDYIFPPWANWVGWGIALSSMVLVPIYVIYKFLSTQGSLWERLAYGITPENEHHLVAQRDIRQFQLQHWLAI
# [5] = target: T2, serotonin transporter (Homo sapiens, UniProt P31645); experiment: 5-HT uptake: displacement of serotonin ligands in vitro (methods of Gu et al.); type: binding; conditions: read-out: 5-HT Uptake, Uptake Profile (IC50)
# T2 sequence (P31645 whole entry): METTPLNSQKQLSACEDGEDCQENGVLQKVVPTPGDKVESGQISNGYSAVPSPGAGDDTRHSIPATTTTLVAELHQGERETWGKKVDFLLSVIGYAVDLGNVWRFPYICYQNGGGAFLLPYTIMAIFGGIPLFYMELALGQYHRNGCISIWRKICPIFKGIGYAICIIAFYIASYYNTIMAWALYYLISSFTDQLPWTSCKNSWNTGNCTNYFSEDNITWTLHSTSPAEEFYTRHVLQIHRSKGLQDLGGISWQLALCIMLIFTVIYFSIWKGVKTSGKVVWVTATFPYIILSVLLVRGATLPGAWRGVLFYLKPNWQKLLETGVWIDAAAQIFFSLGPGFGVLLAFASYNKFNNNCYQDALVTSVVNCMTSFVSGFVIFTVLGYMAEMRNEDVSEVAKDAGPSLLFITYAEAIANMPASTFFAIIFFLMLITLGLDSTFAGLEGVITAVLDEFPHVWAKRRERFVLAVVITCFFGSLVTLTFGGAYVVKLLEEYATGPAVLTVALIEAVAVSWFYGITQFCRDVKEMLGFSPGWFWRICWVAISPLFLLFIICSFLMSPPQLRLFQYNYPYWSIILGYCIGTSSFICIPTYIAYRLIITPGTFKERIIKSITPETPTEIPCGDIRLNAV
# [6] = target: T1, norepinephrine transporter; experiment: Functional activity, norephinephrine uptake inhibition in MDCK cell lines; type: cell-based
# [7] = system: Sprague-Dawley rats; experiment: Spontaneous locomotor activity in rats (Example 123); type: in vivo, rat; conditions: 20 mg/kg i.p., 60 minutes after administration
# Description: Male Sprague-Dawley rats, (Iffa Credo, Saint-Germain/L'Arbresle, France), weighing 200-250 g at the beginning of the study, were used.
# During acclimatization period, rats were housed, 2 or 3 per cage, in Makrolon type III cages, in the animal room (temperature: 20±2° C., humidity: minimum 45%, air changes:>12 per hour, light/dark cycle of 12 h/12 h [on at 7:00 A.M.]). Animals were allowed a minimum of 5 days period before experiment for acclimatization.
# Rats received food (TrouwNutrition, Vigny, France) and water (tap water in water bottle) ad libitum. Rats were placed on a sawdust bedding in their cages (Goldchips, Trouw Nutrition, Vigny, France). On the day before experiments, food was withdrawn to have animals fasted overnight.
# On the day of experiment, test item(s) were solubilized in 5% dextrose (w/v)/polyethylene glycol (PEG) 400 (4:1 v/v).
# All test compounds were administered at 20 mg/kg as a single i.p. dose.
# Twenty, 60 and 120 minutes after administration, rats were placed in a plastic box 30×30 cm in a room with low light intensity (maximum 50 lux). Locomotor activity was determined during 20 min periods using a video image analyzer (Videotrack, View Point, France). Number of occurences, distance and duration of fast and slow movements, number of occurences and duration of periods of inactivity and number of rears were measured.
# [8] = system: mouse; experiment: Acute toxicity assessment, maximum tolerated dose i.v., mouse; type: in vivo; conditions: mice, 30 mg/kg i.v.
# Description: (§1) An in vivo evaluation was carried out to determine the maximum tolerated dose of numerous test compounds in two animal species (mouse and rat). The compounds were administered i.v. and the animals were then observed for 72 h. Compounds 114, 115, 113, 110, 124, 125, 129, and 130 were solubilized in 5% dextrose (w/v)/polyethylene glycol 400 (4:1 v/v). Compounds 126, 127, 131, and 132 were solubilized in 10% hydroxypropyl-β-cyclodextrin (w/v).
# [9] = system: rat; experiment: Acute toxicity assessment, maximum tolerated dose i.v., rat; type: in vivo; conditions: rats, 30 mg/kg i.v.
# Description: as §1
# [10] = target: DAT (Homo sapiens, UniProt Q01959); experiment: cell-based; parameters: expressed in transfected cells; conditions: hDAT cell line; read-out: DA Uptake, Functional Assays (antagonism, EC50)
# DAT, sequence (Q01959 whole entry): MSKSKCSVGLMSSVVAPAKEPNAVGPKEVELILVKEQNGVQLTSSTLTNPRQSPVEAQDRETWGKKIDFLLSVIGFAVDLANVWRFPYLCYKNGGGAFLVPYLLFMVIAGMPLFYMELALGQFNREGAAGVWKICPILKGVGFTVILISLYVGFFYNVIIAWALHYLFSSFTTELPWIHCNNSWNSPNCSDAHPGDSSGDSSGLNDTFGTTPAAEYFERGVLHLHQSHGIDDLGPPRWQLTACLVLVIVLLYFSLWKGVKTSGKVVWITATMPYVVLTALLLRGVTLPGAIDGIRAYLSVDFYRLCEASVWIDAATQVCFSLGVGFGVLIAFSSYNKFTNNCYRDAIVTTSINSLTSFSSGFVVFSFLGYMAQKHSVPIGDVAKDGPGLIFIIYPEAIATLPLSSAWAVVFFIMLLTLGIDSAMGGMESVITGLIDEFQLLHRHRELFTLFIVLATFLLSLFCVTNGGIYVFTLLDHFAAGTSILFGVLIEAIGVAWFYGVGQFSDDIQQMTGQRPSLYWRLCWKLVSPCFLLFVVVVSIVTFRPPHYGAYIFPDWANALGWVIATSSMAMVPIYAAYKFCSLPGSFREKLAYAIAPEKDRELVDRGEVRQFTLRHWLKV
# [11] = target: T2, serotonin transporter; experiment: Functional activity, serotonin uptake inhibition in human HEK-293 cell lines; type: cell-based; parameters: expressed in transfected cells; host or cells: HEK-293; conditions: 5-HT Uptake, Functional Assays (antagonism, EC50, nM)
# [12] = target: dopamine transporter (Homo sapiens, UniProt Q01959); experiment: DA uptake: displacement of dopamine ligands in vitro (methods of Gu et al.); conditions: DA Uptake, Uptake Profile (IC50, nM), displacement of dopamine ligands in vitro
# dopamine transporter (Homo sapiens, UniProt Q01959), sequence (Q01959 whole entry): as above
# [13] = cited from earlier work
# [14] = baboon, intravenous; cited from earlier work
# dopamine transporter (Rattus norvegicus, UniProt P23977), sequence (P23977 whole entry): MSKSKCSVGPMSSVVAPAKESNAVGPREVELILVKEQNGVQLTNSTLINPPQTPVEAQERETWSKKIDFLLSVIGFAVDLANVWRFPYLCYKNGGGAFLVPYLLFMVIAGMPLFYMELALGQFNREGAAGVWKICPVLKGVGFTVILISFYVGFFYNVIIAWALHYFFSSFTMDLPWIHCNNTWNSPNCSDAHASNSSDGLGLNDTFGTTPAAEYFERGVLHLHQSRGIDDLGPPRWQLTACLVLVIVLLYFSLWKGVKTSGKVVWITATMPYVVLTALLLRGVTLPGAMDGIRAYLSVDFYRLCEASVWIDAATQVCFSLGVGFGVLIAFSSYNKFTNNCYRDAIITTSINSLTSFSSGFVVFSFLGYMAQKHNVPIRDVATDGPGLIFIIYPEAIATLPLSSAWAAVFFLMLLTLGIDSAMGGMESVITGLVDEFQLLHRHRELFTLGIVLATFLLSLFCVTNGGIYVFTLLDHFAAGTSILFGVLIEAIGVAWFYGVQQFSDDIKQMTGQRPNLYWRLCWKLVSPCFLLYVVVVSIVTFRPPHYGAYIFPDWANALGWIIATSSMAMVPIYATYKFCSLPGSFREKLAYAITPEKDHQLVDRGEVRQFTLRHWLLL
compound,measurement,setting,value
CN1[C@H]2CC[C@@H]1[C@@H](C(=O)Oc1ccccc1)[C@@H](c1ccc(Cl)cc1)C2 [RTI-113],pIC50,[1],8.70
same,duration of action,[2],over 4 hours
same,time to peak action after administration,[2],30 to 60 min
same,effectiveness of elimination of cocaine consumption,[3]; 60% occupancy of the dopamine transporter,92%
same,effect on self-administration of cocaine,[3],inhibits self-administration of cocaine
"FC(F)(F)c1ccc(OC[C@@H]2CCCN(CC3(c4ccc(Cl)cc4)CCC3)C2)cc1 [compound 114, (R)-1-[1-(4-chloro-phenyl)-cyclobutylmethyl]-3-(4-trifluoromethyl-phenoxymethyl)-piperidine]",pIC50,[4],> 6.00
same,pIC50,[5],< 6.00
same,pEC50,[6],> 6.00
same,locomotor activity compared to control animals,[7],significant increase
same,tolerability and mortality after 72 h,[8],well tolerated
same,tolerability and mortality after 72 h,[9],well tolerated
same,pEC50,[10],> 8.00
same,EC50,[11],> 1000 nM
same,IC50,[12],< 100 nM
Cc1ccc(-c2cc([C@@H]3C4CCC(C[C@@H]3c3ccc(Cl)cc3)N4C)on2)cc1 (some centres unmarked) [RTI-336],pIC50,[1],8.39
same,time to peak action after administration,[2],70 to 100 min
same,effect on self-administration of cocaine,[3],effective blocking of cocaine self-administration
COC(=O)[C@H]1[C@@H](OC(=O)c2ccccc2)C[C@@H]2CC[C@H]1N2C [cocaine],time of peak uptake into the brain,[13]; dosed intravenously,4 to 6 min
same,half-life in the brain,[13]; intravenous,20 min
same,time to peak concentration in brain,[14],4 to 6 min
